Test results as given in publication PMC12926254, “Novel pyrazole carboxylate derivatives as lonazolac bioisosteres with selective COX-2 inhibition: design, synthesis and anti-inflammatory activity” (Molecular Diversity, 2025).
Where two headings read alike, the source gives them in different places. Marks after values point to notes of the source that are not given here. Blank lines part the entries; values can stand above or below the compound they belong to.

What was measured:
[1] = test system: carrageenan-induced rat paw edema; test: Carrageenan-induced rat paw edema assay; type: in vivo; conditions: 25 mg/kg
MTS cytotoxicity assay = type: cell-based; conditions: mouse, RAW 264.7 macrophages (heading: LPS-induced), read-out: Cytotoxicity IC50 (LPS-induced RAW 264.7 cells)
Description: Using Dulbecco’s Modified Eagle Medium (DMEM, Biowest L0060) supplemented with 10% foetal bovine serum (FBS) (Biowest, S1810) and 1% anti-biotic and anti-mycotic (Biowest, L0010-100), the RAW264.7 macrophage cell line (ATCC ® TIB-71TM) was cultivated. The cells were then incubated at 37 °C with 5% CO2 until they were confluent, which should be between 70 and 80%. After two to three days, the growth media was regularly changed. Trypsin–EDTA was then used to wash and collect the cells (Biowest, L0931-500).
The MTS (3-(4,5-dimethylthiazol-2-yl)-5-(3-carboxymethoxy-phenyl)-2-(4-sulfophenyl)-2H-tetrazolium) test (Promega, ab197010) was used to determine cell viability. In short, a 96-well plate was seeded with 5 × 10^3 cells per well, and the cells were then incubated for 24 h at 37 °C and 5% CO2. The cells were then re-incubated for 24 h at 37 °C and 5% CO2 after the medium was discarded and replaced with 180 µl of fresh growth media and 20 µl of sample (1000 ug, 250 ug, 63 ug, 16 ug, and 4 ug µg/mL). 20 µl of MTS was then added to each well, and the mixture was incubated for three hours at 37 °C with 5% CO2. […] Control cells were those that received no treatment.

TNF-α = TNF-α production in LPS-activated RAW 264.7 macrophages (ELISA); conditions: Mus musculus, RAW264.7, read-out: TNF-α IC50
gastric mucosa = test: Ulcerogenic liability (ulcer index); type: in vivo; conditions: 50 mg/kg orally, three successive days, rats
Description: […]. […] Rats were divided into 7 groups and fasted for 18 h before drug administration. The control group received the vehicle (2.5% Tween 80). […] After 2 h, animals were fed. Rats were given the required dose orally for three successive days. After 2 h of the last dose, rats were sacrificed; the stomach of each rat was removed then opened along the greater curvature and rinsed with saline. In order to examine the stomach, it was stretched by pins on a corkboard. The gastric mucosa was carefully inspected for the occurrence of ulcers with the aid of an illuminated magnifying lens (l0x), then ulcer index was calculated according to the method described by Cho and Ogle. Lesions were counted and measured along the greater diameter using transparent ruler. Every five hemorrhagic spots were considered equivalent to 1 mm of ulcer. The ulcer index (mm) was calculated from the sum of the total length of ulcers and hemorrhagic spots in each stomach.

[2] = test system: carrageenan-induced rat paw edema; test: Carrageenan-induced rat paw edema assay; type: in vivo; conditions: for Paw edema thickness ± SEM / Paw edema % inhibition: rat
Description: As previously described, paw thickness was evaluated at 1, 3, and 5 h following carrageenan injection at a dose of 50 mg/kg.

PGE2 [3] = test: PGE2 production in LPS-activated RAW 264.7 macrophages (ELISA); conditions: Mus musculus, RAW264.7, read-out: PGE2 IC50
iNOS = test: Inducible nitric oxide synthase (iNOS) inhibition in LPS-induced RAW 264.7 cells (ELISA); type: cell-based; conditions: Mus musculus, RAW264.7
Source text: NO is produced from L-arginine by iNOS and is utilized in a variety of cell signaling processes. An inducible member of the NOS family, iNOS is increased during pro-inflammatory cytokine activity as a host-defense mechanism. A commercially available quantitative ELISA kit (ab253219 Mouse iNOS Simple Step ELISA® Kit) will be used to evaluate the iNOS enzyme activity of the substances in the cell lysate in accordance with the manufacturer’s instructions.

COX-2 [4] = molecular target: T1, COX-2 (Homo sapiens, UniProt P35354); conditions: cited from earlier work
T1 construct: purchased Biovision K547
T1 sequence (P35354 18-604): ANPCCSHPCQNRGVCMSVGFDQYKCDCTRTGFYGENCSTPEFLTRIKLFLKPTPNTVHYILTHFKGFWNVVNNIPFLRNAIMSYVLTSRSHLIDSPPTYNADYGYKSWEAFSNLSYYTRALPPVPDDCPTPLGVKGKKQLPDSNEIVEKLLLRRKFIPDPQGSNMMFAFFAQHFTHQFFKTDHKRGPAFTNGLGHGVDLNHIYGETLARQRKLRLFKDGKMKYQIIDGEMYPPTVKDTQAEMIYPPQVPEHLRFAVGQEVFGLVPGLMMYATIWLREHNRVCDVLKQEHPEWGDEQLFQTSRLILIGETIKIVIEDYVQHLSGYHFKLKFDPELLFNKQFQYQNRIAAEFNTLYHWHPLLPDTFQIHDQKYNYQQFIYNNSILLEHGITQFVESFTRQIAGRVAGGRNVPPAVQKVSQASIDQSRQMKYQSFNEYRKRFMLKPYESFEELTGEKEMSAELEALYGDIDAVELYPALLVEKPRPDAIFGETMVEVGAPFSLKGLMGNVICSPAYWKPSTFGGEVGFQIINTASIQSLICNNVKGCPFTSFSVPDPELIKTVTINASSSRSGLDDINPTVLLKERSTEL

PGE2 [5] = test system: PGE2; parameters: method as in PMID 36166898; conditions: LPS-stimulated RAW cells; cited from earlier work
COX-1 = molecular target: T2, COX-1 (Ovis aries, UniProt P05979); test: In vitro COX-1 inhibition (COX-1 Inhibitor Screening Kit-K548, Biovision); type: biochemical; conditions: mean of six values ± standard deviation
T2 construct: purchased Biovision K548
T2 sequence (P05979 25-600): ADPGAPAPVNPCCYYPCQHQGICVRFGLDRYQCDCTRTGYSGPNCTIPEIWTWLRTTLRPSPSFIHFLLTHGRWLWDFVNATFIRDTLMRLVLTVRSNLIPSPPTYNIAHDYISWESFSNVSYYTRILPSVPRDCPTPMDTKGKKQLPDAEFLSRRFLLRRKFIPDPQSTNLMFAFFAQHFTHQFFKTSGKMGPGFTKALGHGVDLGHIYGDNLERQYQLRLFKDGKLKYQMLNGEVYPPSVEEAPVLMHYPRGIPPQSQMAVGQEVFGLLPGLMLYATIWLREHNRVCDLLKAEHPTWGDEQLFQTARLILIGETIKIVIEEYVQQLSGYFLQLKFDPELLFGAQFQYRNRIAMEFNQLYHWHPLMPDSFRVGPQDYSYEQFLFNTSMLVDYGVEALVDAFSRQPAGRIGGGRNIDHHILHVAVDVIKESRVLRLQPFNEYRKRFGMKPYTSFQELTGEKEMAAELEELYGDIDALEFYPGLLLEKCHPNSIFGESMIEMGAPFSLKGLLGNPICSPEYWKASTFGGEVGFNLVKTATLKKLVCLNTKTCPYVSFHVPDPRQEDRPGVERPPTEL
Description: (§1) The IC50 value of the tested compounds was determined.
COX-1 inhibitor Screening Protocol: Dissolve the tested compounds in DMSO. Use COX assay buffer to dilute the relevant test concentration by 10X before using. Place 10 µl of diluted test inhibitor or assay buffer in the specified wells instead of the sample screen (S) or enzyme control (EC; no inhibitor). To one of the wells, add 2 µl of SC560 and 8 µl of COX Assay Buffer as an inhibitor control (IC). Before using, combine 2 µl of COX Cofactor with 398 µl of COX Assay Buffer to dilute COX cofactor 200 times. Blend thoroughly. Just before using, mix 5 µl of the provided arachidonic acid with 5 µl of NaOH to make the arachidonic acid solution. Combine quickly using a vortex. To dilute the arachidonic acid/NaOH solution 10 times, add 90 µl of water. There should be 80 µl of reaction mix in each well. Using a multi-channel pipette, add 10 µl of diluted arachidonic acid/NaOH solution to each well to initiate all the reactions at once.

COX-2 [6] = molecular target: T1, COX-2; test: In vitro COX-2 inhibition (COX-2 Inhibitor Screening Kit-K547, Biovision); type: biochemical; conditions: for COX-2 S.I.: COX-1 IC50/COX-2 IC50; for IC50: mean of six values ± standard deviation
Description: as §1
COX-2 inhibitor Screening Protocol: Dissolve the tested compounds in DMSO. Use COX Assay Buffer to dilute the relevant test concentration by 10X before using. Place 10 µl of diluted test inhibitor or Assay Buffer in the specified wells instead of the sample screen (S) or enzyme control (EC; no inhibitor). […] Before using, combine 2 µl of COX Cofactor with 398 µl of COX Assay Buffer to dilute COX Cofactor 200 times. Blend thoroughly. Just before using, mix 5 µl of the provided arachidonic acid with 5 µl of NaOH to make the arachidonic acid solution. Combine quickly using a vortex. To dilute the arachidonic acid/NaOH solution 10 times, add 90 µl of water. There should be 80 µl of reaction mix in each well. Using a multi-channel pipette, add 10 µl of diluted arachidonic acid/NaOH solution into each well to initiate the reactions concurrently.

[7] = 3 h after carrageenan, 50 mg/kg
[8] = 5 h after carrageenan, 50 mg/kg

Structure (SMILES): Cc1ccc(-c2cc(C(F)(F)F)nn2-c2ccc(S(N)(=O)=O)cc2)cc1 [Celecoxib, celecoxib, reference compound]
- % inhibition (edema) [1]: 34.97%
- IC50 at 24 h (MTS cytotoxicity assay): 149 ± 5.3 µM
- IC50 (TNF-α): 0.87 ± 0.03 µM
- Average no of ulcer (gastric mucosa): 0.48 ± 0.015***^b
- Average severity (gastric mucosa): 0.66 ± 0.026***^b
- % inhibition (edema) ([2]; 50 mg/kg): 97.48%
- Paw edema thickness ± SEM ([2]; 1 h after carrageenan, 50 mg/kg): 3.43 ± 0.004 mm
- Paw edema % inhibition [2, 7]: 38.3%
- Paw edema thickness ± SEM [2, 7]: 3.1 ± 0.011 mm
- Paw edema % inhibition [2, 8]: 56.3%
- Paw edema thickness ± SEM [2, 8]: 2.52 ± 0.0095 mm
- ED50 ([2]; Rattus norvegicus, dose producing 50% edema inhibition): 40.4 mg/kg
- IC50 (PGE2 [3]): 0.38 ± 0.027 µM
- IC50 (iNOS): 0.48 ± 0.04 µM

Structure (SMILES): Cc1ccc(N/N=C2\C(=N)N(c3ccc(S(N)(=O)=O)cc3)N=C2N)cc1 [Compound 8a]
- COX-2 selectivity index (S.I.) (COX-2 [4]): 8.41

Structure (SMILES): N=C1/C(=N\Nc2ccc(Cl)cc2)C(N)=NN1c1ccc(S(N)(=O)=O)cc1 [Compound 8b]
- COX-2 selectivity index (S.I.) (COX-2 [4]): 10.55

Structure (SMILES): O=C(O)COc1ccc(C(=O)/C=C/c2cn(-c3ccccc3)nc2-c2ccc([N+](=O)[O-])cc2)cc1 [Compound 10]
- IC50 (PGE2 [5]): 11 µM

- IC50 (COX-1): 8.59 ± 0.33 µM
- COX-2 S.I. (COX-2 [6]): 15.07
- IC50 (COX-2 [6]): 0.575 ± 0.019 µM
Structure (SMILES): CCOC(=O)COc1ccc(C2=NN(c3ccc(S(C)(=O)=O)cc3)C(c3ccccc3Br)C2)cc1 (centres unmarked) [Compound 15 g, Ethyl 2-(4-(5-(2-bromophenyl)-1-(4-(methylsulfonyl)phenyl)-4,5-dihydro-1H-pyrazol-3-yl)phenoxy)acetate]

- IC50 (COX-1): 7.42 ± 0.45 µM
- COX-2 S.I. (COX-2 [6]): 1.90
- IC50 (COX-2 [6]): 3.9 ± 0.129 µM
Structure (SMILES): CCOC(=O)COc1ccc(C2=NN(c3ccc(S(C)(=O)=O)cc3)C(c3ccccc3)C2)cc1 (centres unmarked) [Compound 15a, Ethyl 2-(4-(1-(4-(methylsulfonyl)phenyl)-5-phenyl-4,5-dihydro-1H-pyrazol-3-yl)phenoxy) acetate]

- IC50 (COX-1): 11.4 ± 0.42 µM
- COX-2 S.I. (COX-2 [6]): 5.89
- IC50 (COX-2 [6]): 1.94 ± 0.064 µM
Structure (SMILES): CCOC(=O)COc1ccc(C2=NN(c3ccc(S(C)(=O)=O)cc3)C(c3ccc(C)cc3)C2)cc1 (centres unmarked) [Compound 15b, Ethyl 2-(4-(1-(4-(methylsulfonyl)phenyl)-5-(p-tolyl)-4,5-dihydro-1H-pyrazol-3-yl)phenoxy)acetate]

- IC50 (COX-1): 3.01 ± 0.12 µM
- COX-2 S.I. (COX-2 [6]): 4.05
- IC50 (COX-2 [6]): 0.742 ± 0.025 µM
Structure (SMILES): CCOC(=O)COc1ccc(C2=NN(c3ccc(S(C)(=O)=O)cc3)C(c3ccc(Cl)cc3)C2)cc1 (centres unmarked) [Compound 15e, Ethyl 2-(4-(5-(4-chlorophenyl)-1-(4-(methylsulfonyl)phenyl)-4,5-dihydro-1H-pyrazol-3-yl)phenoxy)acetate]

- IC50 (COX-1): 6.83 ± 0.25 µM
- COX-2 S.I. (COX-2 [6]): 4.30
- IC50 (COX-2 [6]): 1.59 ± 0.052 µM
Structure (SMILES): CCOC(=O)COc1ccc(C2=NN(c3ccc(S(C)(=O)=O)cc3)C(c3ccc([N+](=O)[O-])cc3)C2)cc1 (centres unmarked) [Compound 15f, Ethyl 2-(4-(1-(4-(methylsulfonyl)phenyl)-5-(4-nitrophenyl)-4,5-dihydro-1H-pyrazol-3-yl)phenoxy)acetate]
